ChEMBL document CHEMBL1130670, “Potent bicyclic lactam inhibitors of thrombin: Part I: P3 modifications” (Bioorg Med Chem Lett, 1998)

Experiments:
Prothrombin = Prothrombin (Homo sapiens, UniProt P00734); assay: Binding affinity against thrombin
[1] = biological target: Prothrombin (Rattus norvegicus) (UniProt P18292)
Description: Compound was tested for the antithrombic effect in rat arterial thrombosis model and expressed as activated partial thromboplastin time(PTT)

[2] = biological target: Prothrombin (Rattus norvegicus) (UniProt P18292); remark: listed apart in the source
Description: Compound was tested for the antithrombic effect in rat arterial thrombosis model and expressed as mean occlusion time(MOT)

[3] = biological target: Prothrombin (Rattus norvegicus) (UniProt P18292); remark: listed apart in the source
Description: Compound was tested for the antithrombic effect in rat arterial thrombosis model and expressed as thrombin time(TT)
For APTT in this document: test concentration or dose not given here.
For TT in this document: test concentration or dose not given here.

Row | SMILES | Ki (Prothrombin) | APTT [1] | MOT [2] | TT [3]
1 | N=C(N)NCCCC(NC(=O)[C@@H]1CC[C@H]2CN(C(=O)CCC3CCCCC3)CC(=O)N21)C(=O)c1nccs1 (some centres undefined) | 24 nM | 52.4 s | 25.4 min | 320 s
2 | N=C(N)NCCCC(NC(=O)[C@@H]1CC[C@H]2CN(C(=O)CCCc3ccccc3)CC(=O)N21)C(=O)c1nccs1 (some centres undefined) | 1.2 nM | 120 s | > 60 min | 494 s
3 | N=C(N)NCCCC(NC(=O)[C@@H]1CC[C@H]2CN(C(=O)CCc3ccccn3)CC(=O)N21)C(=O)c1nccs1 (some centres undefined) | 3 nM | 44.2 s | 47.6 min | 557 s
4 | N=C(N)NCCCC(NC(=O)[C@@H]1CC[C@H]2CN(CCCc3ccccc3)CC(=O)N21)C(=O)c1nccs1 (some centres undefined) | 17 nM | 30.5 s | 28.3 min | 122 s
5 | N=C(N)NCCCC(NC(=O)[C@@H]1CC[C@H]2CN(C(=O)CCc3ccccc3)CC(=O)N21)C(=O)c1nccs1 (some centres undefined) |  | 44.3 s | 42.2 min | 381 s
6 | N=C(N)NCCCC(NC(=O)[C@@H]1CC[C@H]2CN(C(=O)C3Cc4ccccc4CN3)CC(=O)N21)C(=O)c1nccs1 (some centres undefined) | 32 nM |  |  | 
7 | NC(N)=NCCCC(NC(=O)[C@@H]1CC[C@H]2CN(C(=O)[C@@H](N)Cc3c[nH]c4ccccc34)CC(=O)N21)C(=O)c1nccs1 (stereo in doubt; 33) | 75.3 nM |  |  | 
8 | NC(N)=NCCCC(NC(=O)[C@@H]1CC[C@H]2CN(C(=O)[C@@H](N)Cc3c[nH]c4ccccc34)CC(=O)N21)C(=O)c1nccs1 (stereo in doubt; 34) [listing 1 of 2 here] | 0.96 nM |  |  | 
9 | N=C(N)NCCCC(NC(=O)[C@@H]1CC[C@H]2CN(C(=O)CCc3ccc4ccccc4c3)CC(=O)N21)C(=O)c1nccs1 (some centres undefined) | 0.5 nM |  |  | 
10 | NC(N)=NCCCC(NC(=O)[C@@H]1CC[C@H]2CN(C(=O)[C@@H](N)Cc3ccc(O)cc3)CC(=O)N21)C(=O)c1nccs1 (stereo in doubt; 32) |  | 76 s | 53 min | 433 s
11 | N=C(N)NCCCC(NC(=O)[C@@H]1CC[C@H]2CN(C(=O)COc3ccccc3)CC(=O)N21)C(=O)c1nccs1 (some centres undefined) | 16 nM | 31.5 s | 37.8 min | 248 s
12 | N=C(N)NCCCC(NC(=O)[C@@H]1CC[C@H]2CN(C(=O)[C@@H](N)Cc3ccc(O)cc3)CC(=O)N21)C(=O)c1nccs1 (stereo in doubt; 31) | 160 nM |  |  | 
13 | N=C(N)NCCCC(NC(=O)[C@@H]1CC[C@H]2CN(C(=O)[C@@H](O)c3ccccc3)CC(=O)N21)C(=O)c1nccs1 (stereo in doubt; 29) [listing 2 of 2 here] |  | 49.1 s | > 60 min | 476 s
14 | N=C(N)NCCCC(NC(=O)[C@@H]1CC[C@H]2CN(C(=O)Cc3ccccc3)CC(=O)N21)C(=O)c1nccs1 (some centres undefined) | 2.5 nM | 79.2 s | > 60 min | 387 s
15 | NC(N)=NCCCC(NC(=O)[C@@H]1CC[C@H]2CN(C(=O)[C@@H](N)Cc3c[nH]c4ccccc34)CC(=O)N21)C(=O)c1nccs1 (stereo in doubt; 34) [listing 2 of 2 here] |  | 188 s | > 60 min | 929 s
16 | Cc1ccc(CCC(=O)N2CC(=O)N3[C@@H](CC[C@H]3C(=O)NC(CCCN=C(N)N)C(=O)c3nccs3)C2)cc1 (some centres undefined) | 0.5 nM | 88 s | > 60 min | > 999 s
17 | N=C(N)NCCCC(NC(=O)[C@@H]1CC[C@H]2CN(C(=O)[C@@H](N)Cc3ccc(O)cc3)CC(=O)N21)C(=O)c1nccs1 (stereo in doubt; 32) | 18 nM |  |  | 
18 | N=C(N)NCCCC(NC(=O)[C@@H]1CC[C@H]2CN(C(=O)c3ccccc3)CC(=O)N21)C(=O)c1nccs1 (some centres undefined) |  | 25.5 s | 45.8 min | 144 s

Second part, led by results:

Row | Ki (Prothrombin) | SMILES | APTT [1] | MOT [2] | TT [3]
19 | 5 nM | N=C(N)NCCCC(NC(=O)[C@@H]1CC[C@H]2CN(C(=O)CCOc3ccccc3)CC(=O)N21)C(=O)c1nccs1 (some centres undefined) | 45.2 s | 47.7 min | 276 s
20 | 84 nM | N=C(N)NCCCC(NC(=O)[C@@H]1CC[C@H]2CN(C(=O)[C@@H](O)c3ccccc3)CC(=O)N21)C(=O)c1nccs1 (stereo in doubt; 28) |  |  | 
21 | 0.5 nM | COc1ccc(CCC(=O)N2CC(=O)N3[C@@H](CC[C@H]3C(=O)NC(CCCN=C(N)N)C(=O)c3nccs3)C2)cc1 (some centres undefined) | 55.2 s | > 60 min | 633 s
22 | 0.106 nM | N=C(N)NCCCC(NC(=O)[C@@H]1CC[C@H]2CN(C(=O)CCc3ccc(Cl)c(Cl)c3)CC(=O)N21)C(=O)c1nccs1 (some centres undefined) |  |  | 
23 | 0.92 nM | N=C(N)NCCCC(NC(=O)[C@@H]1CC[C@H]2CN(C(=O)CCc3ccccc3F)CC(=O)N21)C(=O)c1nccs1 (some centres undefined) |  |  | 
24 | 16 nM | N=C(N)NCCCC(NC(=O)[C@@H]1CC[C@H]2CN(C(=O)[C@@H](O)c3ccccc3)CC(=O)N21)C(=O)c1nccs1 (stereo in doubt; 29) [listing 1 of 2 here] |  |  | 
25 | 0.5 nM | N=C(N)NCCCC(NC(=O)[C@@H]1CC[C@H]2CN(C(=O)CCc3ccccc3C(F)(F)F)CC(=O)N21)C(=O)c1nccs1 (some centres undefined) | 90 s | > 60 min | > 999 s
26 | 4.4 nM | N=C(N)NCCCC(NC(=O)[C@@H]1CC[C@H]2CN(C(=O)[C@@H](O)Cc3ccccc3)CC(=O)N21)C(=O)c1nccs1 (some centres undefined) | 463 s | > 60 min | 679 s
27 | 50 nM | N=C(N)NCCCC(NC(=O)[C@@H]1CC[C@H]2CN(C(=O)OCc3ccccc3)CC(=O)N21)C(=O)c1nccs1 (some centres undefined) |  |  | 
28 | 3 nM | NC(N)=NCCCC(NC(=O)[C@@H]1CC[C@H]2CN(C(=O)[C@@H](N)Cc3ccc(F)cc3)CC(=O)N21)C(=O)c1nccs1 (some centres undefined) | 44.2 s | 47.7 min | 557 s
29 | 58 nM | N=C(N)NCCCC(NC(=O)[C@@H]1CC[C@H]2CN(C(=O)NCc3ccccc3)CC(=O)N21)C(=O)c1nccs1 (some centres undefined) |  |  | 
30 | 0.35 nM | N=C(N)NCCCC(NC(=O)[C@@H]1CC[C@H]2CN(C(=O)CCc3cccc4ccccc34)CC(=O)N21)C(=O)c1nccs1 (some centres undefined) | 217 s | 33.2 min | > 600 s
